This note sets out measurements from US6429208B1, “Methods and compositions for restoring impaired cellular immune function” (Regents of the University of California, priority 1992, dated 2002).

The assay concerns PBMC from HIV seropositive subjects. The assay can be described thus: Intracellular cAMP in PBMC from HIV seropositive subjects. The class given is cell-based, human. How it is done: The compound 2′,5′ dideoxyadenosine (ddAdo) inhibits adenylate cyclase, the enzyme responsible for the generation of cAMP, by competition for the “P”-binding site (Johnson, J Biochem (1990) 265:11595-11600). […] In one such experiment (FIG. 9A), the intracellular cAMP level decreased to normal levels within 4 hours and remained at this level when tested after 20 hours. The effect of ddAdo was compared with two other adenylate cyclase inhibitors which are naturally occurring adenosine phosphates. When used in equal concentrations, the three inhibitors gave similar reductions in intracellular CAMP levels. For example, when added in 10 ng/ml for 10 min, ddAdo decreased the CAMP levels from 5.3 pmol/10^6 PBMC to 3.6; 3′ AMP to 3.5; and 2′,3′deoxy-AMP reduced the level to 3.2 pmol/10^6 PBMC.
cAMP was determined using a commercial scintillation proximity RIA (Amersham, Arlington Heights, Ill.) following the manufacturer's protocol. PKA activity was determined using a kit from Gibco (Grand Island, N.Y.) and the manufacturer's protocol. For the cAMP assay, cells were lysed and sonicated in assay buffer (provided with the kits). Proliferative assays were performed as described above.
Further purification was achieved by reverse phase chromatography. 3 ml of above solution was applied on C18 Sep-Pak cartridge (Waters) equilibrated with water+0.1% TFA. The column was washed with H2O-TFA until absorbance at 280nm reached baseline. Bound material was eluted from the column by stepwise elution with H2O-acetonitrile-TFA mixtures. There were three peaks on elution curve at 20%, 40% and 70% acetonitrile. The effluent from the above step was rechromatographed again on C18 cartridge and yielded additional quantities of the three products. […] Fraction 2 was added in various PBS dilutions to lymphocytes from HIV seropositive subjects. cAMP was then measured on lysates of these cells after 1 hour.

Regarding `C[C@H]1O[C@@H](n2cnc3c(N)ncnc32)C[C@@H]1O` [ddAdo, 2′,5′ dideoxyadenosine], the cAMP levels (10 ng/ml for 10 min, decreased from 5.3) amounted to 3.6 pmol/10^6 PBMC. For the same compound, the “Time for intracellular cAMP level to decrease to normal levels” value (added for 10 minutes followed by washing, remained at this level after 20 hours, FIG. 9A) is ≤ 4 h.
